This note sets out measurements from patent US9506907B2, “Bioengineered human trabecular meshwork for biological applications” (The Research Foundation of State University of New York, priority 2012, dated 2016).

In assay [1] the test system is bioengineered HTM (primary HTM cells on gelatin-coated 12 μm SU-8 scaffolds). The experiment in a line: Perfusion of bioengineered HTM on SU-8 scaffold: transmembrane pressure at constant flow. Format: cell-based, human. From the text: 1. The flow system apparatus (FIG. 2) incorporating the principles and features of this invention is contained within a controlled environment, which herein comprises of a stand-alone perfusion chamber, with a cell growth medium entry system (FIG. 2c; 204) and a screening agent (for example a glaucoma drug) entry system (FIG. 2c; 204) as shown in FIG. 2c. The system allows for the screening agent to be added to the perfusate at a pre-determined concentration for a pre-determined number of hours. […]
8. […] Back pressures were continuously monitored with a pressure transducer and recorded. […]
(§1) A flow system apparatus for the controlled flow pressure measurement was constructed as shown in FIG. 2C was contained in a perfusion chamber housing comprised of at least a perfusion chamber with an integrated pressure transducer (FIG. 2C; 206), the sterilized, HTM biocompatible coated, SU-8 3-D micro- and nanostructured scaffold with or without HTM cells placed within a cell-culture insert (FIG. 2A; 202) and were secured in the scaffold holder, comprising at least a bottom element adapted for effluent (FIG. 2A; 203), a top element adapted for media entry (FIG. 2A; 201) inside the perfusion chamber (FIG. 2c). […] Back pressures were continuously monitored with a pressure transducer (FIG. 2C; 206) and recorded. […]

Assay [2] relates to HTM cells grown on SU-8 scaffolds (morphology, F-actin cytoskeleton). The experiment in a line: SEM and confocal imaging of HTM cells on SU-8 scaffolds after Lat-B perfusion. The format is cell-based, human. Conditions: FIG. 15F.
Excerpt: 11. Follow up cell characterization studies may be conducted as desired with standard techniques well known to those of skill in the art. For this invention, samples were fixed and stained for SEM and confocal image analysis as described herein (FIGS. 11-15).
Cells were characterized using standard procedures for SEM, Immunocytochemistry and confocal imaging, well known to those of skill in the art.
as §1, with “2c). This flow system allowed for simultaneous control of the flow and measurement of the transmembrane pressure, permitting the exploration of the outflow characteristics of the in vitro HTM model.” for “2c).”

Turning to `C/C1=C/C(=O)O[C@@H]2C[C@@H](CC[C@H](C)/C=C\CC1)O[C@@](O)([C@@H]1CSC(=O)N1)C2` [Lat-B, latruncunlin-B], in assay [1] (FIG. 16, indicates decreased flow resistance), the “perfusion pressure of the artificial trabecular meshwork after Lat-B treatment” value is listed as “decreased dramatically”. Moreover, the “decrease of the resistance to flow” value in assay [1] (Lat-B added to the perfusate at 2 μM for 4 hours, constant flow, 34° C., N=8, p<0.05 (FIG. 16)) came out at 92±6%. The “F-actin cytoskeleton (confocal)” value in assay [2] was “elongated actin fibers were disturbed and became punctate actin bundles”.
